Earlier results, collected in patent US20260021069A1, “ADVANTAGEOUS FLUOROB[…] THE TREATMENT OF MENTAL DISORDERS OR ENHANCEMENT” (TACTOGEN INC, priority 2023, published 2026).

Tests used:
DAT and SERT [1] = details: uptake inhibition IC50 based; literature value
DAT and SERT [2] = details: release based; Rothman et al. 2012
[3] = after 75 or 125 mg MDMA; standard deviation of 1.3 hours; Vizeli & Liechti 2017
DAT and NET = details: Rothman et al. 2001

| Compound | DAT/SERT ratio (1/IC50 at DAT divided by 1/IC50 at SERT) (DAT and SERT [1]) | DAT/SERT EC50 ratio (DAT and SERT [2]) | duration of acute therapeutic effects [3] | DAT/NET EC50 ratio (DAT and NET) |
| --- | --- | --- | --- | --- |
| CCNC(C)Cc1ccc2c(c1)OCO2 (stereo not drawn) [MDEA, 3,4-methylenedioxy-N-ethylamphetamine] | 3.2 | 0.76 | – | – |
| CNC(C)Cc1ccc2c(c1)OCO2 (stereo not drawn) [MDMA] | 0.08 | – | 4.2 h | – |
| C[C@H](N)Cc1ccccc1 [d-amphetamine] | – | – | – | 0.9 |
| CN[C@@H](C)Cc1ccccc1 [d-methamphetamine] | – | – | – | 0.5 |
